Among the test systems are SW-620; RPMI-8226; HT-29; COLO 205; PC-3; HCT-116; A549; 786-0; BT-549; HCC 2998; Malme-3M; SF-295; OVCAR-3; MOLT-4; CCRF-CEM; SNB-19; MDA-MB-231; M14; CAKI-1; NCI-H226.
Common to all, as to test: NCI-60 cell line screen, 48 h

Where “and” joins values, the source holds several entries; their conditions need not be identical. Equal entries are not always repeated.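 These data come from cells grown in 96-well plates and exposed to compound for 48 hours at five concentrations. GI50 marks 50% less growth.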 Calls of active or inactive are those of the source. Rule as the data show it: active = GI50 up to about 1.1 µM and inactive = higher. A value given as a limit tells only on which side of the number the result lay.

The record followed here is ChEMBL document CHEMBL1201862, “PubChem BioAssay data set” (2004).

For the compound `Cc1ccc(/N=N/c2c(C)c(C#N)c(=S)n(C3OC(CO)C(O)C(O)C3O)c2C)cc1` (stereo not given), the GI50 in the test on SW-620 was 16 µM (inactive); in the test on RPMI-8226, 46 µM (inactive); in the test with HT-29, 30.9 µM (inactive); in the test on COLO 205, 38.7 µM (inactive); in the test with PC-3, 28.2 µM (inactive); in the test with HCT-116, 25.8 µM (inactive). Besides, the GI50 was 40.6 µM (inactive) in the test on A549; 28.4 µM (inactive) with 786-0; 26.2 µM (inactive) in the test with BT-549; 21.7 µM (inactive) in the test with HCC 2998; 21.7 µM (inactive) in the test on Malme-3M; 36.3 µM (inactive) with SF-295. Further, the GI50 is 29.6 µM (inactive) in the test with OVCAR-3; 12.9 µM (inactive) in the test with MOLT-4; 20 µM (inactive) with CCRF-CEM; 27.7 µM (inactive) in the test on SNB-19; 24.4 µM (inactive) in the test on MDA-MB-231; 20.4 µM (inactive) in the test with M14. Besides, the GI50 in the test on CAKI-1 is 37.2 µM (inactive).
Consider `Cc1cccc2c(N)c3cccc(C(=O)NCCN(C)C)c3nc12`, for which the GI50 with SW-620 was < 0.0225 µM (active); in the test on RPMI-8226 it was < 0.021 µM (active); in the test on HT-29 it was < 0.0236 µM (active); in the test on COLO 205, 0.0315 µM (active); in the test on PC-3 it was 0.0643 µM (active); in the test on HCT-116, 0.0236 µM (active). Moreover, the GI50 is < 0.0161 µM (active) in the test on A549; < 0.0199 µM (active) in the test with 786-0; 1.41 µM (inactive) with BT-549; 0.027 µM (active) in the test with HCC 2998; 0.173 µM (active) with Malme-3M; < 0.0298 µM (active) in the test on SF-295. The GI50 in the test with OVCAR-3 is 0.125 µM (active); in the test on MOLT-4 it was < 0.01 µM (active); with CCRF-CEM, < 0.01 µM (active); in the test with MDA-MB-231 it was 0.0538 µM (active); in the test on M14, 0.143 µM (active); in the test on CAKI-1, < 0.015 µM (active).
`Cc1cc(-c2[nH]c(C(=O)O)cc2I)on1`: the GI50 was > 100 µM (inactive) with SW-620; > 100 µM (inactive) in the test with RPMI-8226; > 100 µM (inactive) in the test on HT-29; > 100 µM (inactive) in the test on COLO 205; > 100 µM (inactive) with PC-3; 42 µM (inactive) in the test on HCT-116. For the same compound, the GI50 in the test with A549 was 56.6 µM (inactive); in the test with 786-0 it was 36.6 µM (inactive); with BT-549 it was 66.1 µM (inactive); in the test with HCC 2998, > 100 µM (inactive); in the test with Malme-3M it was > 100 µM (inactive); with SF-295, 33.7 µM (inactive). In addition, the GI50 is > 100 µM (inactive) in the test with OVCAR-3; > 100 µM (inactive) with MOLT-4; 31 µM (inactive) with SNB-19; 75.2 µM (inactive) in the test on MDA-MB-231; 80 µM (inactive) in the test with M14; 93.1 µM (inactive) in the test on CAKI-1.
Consider `CO[C@@H]1[C@H](OC(=O)NC(=O)CCl)CC[C@]2(CO2)[C@H]1[C@@]1(C)O[C@@H]1CC=C(C)C` [O-CHLOROACETYLCARBAMOYLFUMAGILLOL], for which the GI50 in the test on SW-620 was 9.53 µM (inactive); with RPMI-8226, 6.93 µM (inactive); with HT-29, 5.66 µM (inactive); in the test on COLO 205, 14.2 µM (inactive); in the test on NCI-H226, 19 µM (inactive); in the test on PC-3, 10.7 µM (inactive). Besides, the GI50 in the test with A549 was 7.23 µM (inactive); in the test with 786-0, 12.6 µM (inactive); with BT-549 it was 14.6 µM (inactive); in the test on HCC 2998, 5.81 µM (inactive); with Malme-3M it was 5.97 µM (inactive); in the test with SF-295 it was 5.65 µM (inactive). Also, the GI50 in the test on OVCAR-3 was 3.49 µM (inactive); in the test with MOLT-4, 6.56 µM (inactive); with CCRF-CEM, 0.9 µM (active); in the test on SNB-19 it was 12 µM (inactive); with MDA-MB-231 it was 15.9 µM (inactive); with M14, 5.51 µM (inactive). Moreover, in the test with CAKI-1, the GI50 was 11 µM (inactive).
For the compound `COCOc1cc(OC)ccc1C=O`, the GI50 with SW-620 was 32.8 µM (inactive); with HT-29, 25.6 µM (inactive); with COLO 205, 24.9 µM (inactive); with NCI-H226, 40.8 µM (inactive); with PC-3, 21.8 µM (inactive); in the test with HCT-116, 33.7 µM (inactive). The GI50 in the test with A549 was > 100 µM (inactive); in the test with 786-0, 36.6 µM (inactive); in the test with BT-549, 58.1 µM (inactive); in the test on HCC 2998 it was 24.2 µM (inactive); in the test on Malme-3M it was 11.6 µM (inactive); in the test with SF-295, 39 µM (inactive). Also, the GI50 in the test on OVCAR-3 was 20.9 µM (inactive); in the test with MOLT-4, 37.2 µM (inactive); with CCRF-CEM it was 20.7 µM (inactive); in the test on SNB-19, 46.1 µM (inactive); in the test with MDA-MB-231 it was 51.3 µM (inactive); with M14, 35.2 µM (inactive). The GI50 in the test on CAKI-1 is 86.9 µM (inactive).
For the compound `CC(=O)NC1(C)C(C)C2CC1C(C)C2(C)C` (stereo not given), the GI50 in the test on SW-620, in the test with HT-29, with COLO 205, in the test with NCI-H226, in the test on PC-3 and in the test on HCT-116 was > 100 µM (inactive) in each case. Further, the GI50 with A549, in the test on 786-0, with BT-549, in the test on HCC 2998, in the test with Malme-3M and in the test on SF-295 was > 100 µM (inactive) in each case. For the same compound, the GI50 in the test with OVCAR-3, in the test on MOLT-4, in the test on CCRF-CEM, with SNB-19, in the test on MDA-MB-231 and with M14 was > 100 µM (inactive) each time. The GI50 in the test with CAKI-1 is > 100 µM (inactive).
Take `COc1ccc(C#Cn2nnc3ccccc32)cc1`: the GI50 with SW-620 is > 100 µM (inactive); with RPMI-8226 it was 26.1 µM (inactive); in the test on HT-29 it was > 100 µM (inactive); in the test on COLO 205, > 100 µM (inactive); in the test on NCI-H226, 64.7 µM (inactive); in the test on PC-3, 86.7 µM (inactive). Moreover, the GI50 in the test with HCT-116 is > 100 µM (inactive); in the test on A549 it was > 100 µM (inactive); in the test with 786-0, > 100 µM (inactive); in the test on BT-549, > 100 µM (inactive); in the test on HCC 2998, 26.2 µM (inactive); with Malme-3M, > 100 µM (inactive). Further, the GI50 in the test on SF-295 was > 100 µM (inactive); in the test with OVCAR-3 it was 40.5 µM (inactive); in the test with MOLT-4 it was 71.6 µM (inactive); in the test with SNB-19, > 100 µM (inactive); in the test on MDA-MB-231 it was > 100 µM (inactive); with M14 it was > 100 µM (inactive). Also, in the test on CAKI-1, the GI50 is 32.1 µM (inactive).
Turning to `COC(=O)c1c(C)cccc1C1CN=NC12Cc1cc(C)cc(C)c1C2=O` (stereo not given), the GI50 was 48.5 µM (inactive) in the test with SW-620; 21.5 µM (inactive) in the test with HT-29; 17.2 µM (inactive) with COLO 205; 58.5 µM (inactive) with NCI-H226; 30.1 µM (inactive) with PC-3; 27.9 µM (inactive) in the test with HCT-116. In addition, the GI50 with A549 was 37.1 µM (inactive); in the test on 786-0 it was 42.7 µM (inactive); with BT-549, 29.7 µM (inactive); with HCC 2998, 22.9 µM (inactive); in the test with Malme-3M it was 26.2 µM (inactive); in the test with SF-295, 35.1 µM (inactive). For the same compound, the GI50 is 28.9 µM (inactive) in the test on OVCAR-3; 32.1 µM (inactive) in the test on MOLT-4; 23 µM (inactive) in the test with CCRF-CEM; 73.3 µM (inactive) in the test with SNB-19; 12.4 µM (inactive) with MDA-MB-231; 46.1 µM (inactive) with M14. Further, the GI50 in the test with CAKI-1 was 24.9 µM (inactive).
With `Cc1ccc(C(=O)OC(C)C)cc1/N=N/N(C)C`, the GI50 in the test with SW-620 was > 100 µM (inactive); with RPMI-8226, > 100 µM (inactive); in the test with HT-29, > 100 µM (inactive); in the test on COLO 205, > 100 µM (inactive); in the test on PC-3, 99.1 µM (inactive); in the test on HCT-116 it was > 67.9 µM (inactive). Further, the GI50 is > 100 µM (inactive) in the test on A549; > 100 µM (inactive) in the test on 786-0; > 100 µM (inactive) in the test with BT-549; > 100 µM (inactive) with HCC 2998; > 100 µM (inactive) in the test with Malme-3M; 58.6 µM (inactive) in the test with SF-295. For the same compound, the GI50 is 46 µM (inactive) in the test on OVCAR-3; > 100 µM (inactive) with MOLT-4; 75.2 µM (inactive) in the test with CCRF-CEM; > 69.8 µM (inactive) in the test on SNB-19; > 100 µM (inactive) in the test on MDA-MB-231; > 100 µM (inactive) with M14. The GI50 in the test on CAKI-1 was 83 µM (inactive).
Turning to `CC1C2CCC3C(O)C2(CC(O)C2(O)C1CC(O)C2(C)C)CC3(C)O` (stereo not given), the GI50 in the test on SW-620, with HT-29, in the test with COLO 205, with NCI-H226, in the test on PC-3 and with HCT-116 was > 100 µM (inactive) throughout. Also, the GI50 in the test with A549, with 786-0, in the test with BT-549, with HCC 2998, with Malme-3M and with SF-295 was > 100 µM (inactive) each time. Also, the GI50 with MOLT-4 is > 10 µM (inactive); in the test with CCRF-CEM, > 100 µM (inactive); in the test with SNB-19, > 100 µM (inactive); with MDA-MB-231, 35.8 µM (inactive); in the test on M14, > 100 µM (inactive); in the test with CAKI-1, > 100 µM (inactive).
As to `COc1ccc2c(c1OC)CN1CCc3cc4c(cc3C1C2)OCO4` (stereo not given) [TETRAHYDROBERBERINE], the GI50 is > 100 µM (inactive) with SW-620; > 100 µM (inactive) in the test with RPMI-8226; > 100 µM (inactive) in the test with COLO 205; > 100 µM (inactive) and 68.7 µM (inactive) in the test with NCI-H226; > 100 µM (inactive) in the test on PC-3; > 100 µM (inactive) in the test with HCT-116. Moreover, the GI50 with A549, with 786-0, in the test with BT-549, with HCC 2998, in the test on Malme-3M and in the test on SF-295 was > 100 µM (inactive) throughout. Also, the GI50 in the test with OVCAR-3, in the test with MOLT-4, in the test on SNB-19, with MDA-MB-231, in the test with M14 and with CAKI-1 was > 100 µM (inactive) in each case.
